Experimental data reported in ChEMBL document CHEMBL3734669, “Δ(5)-Cholenoyl-amino acids as selective and orally available antagonists of the Eph-ephrin system” (Eur J Med Chem, 2015).
Values after ≈ are worked out from the molar mass of the structure shown.

Key:
[1] = target: T1, Ephrin type-B receptor 1 (Homo sapiens) (UniProt P54762); assay: (§1) Displacement of biotinylated ephrin-B1-Fc from EphB1 (unknown origin) preincubated for 1 hr followed by biotinylated-ephrin-B1-Fc addition measured after 4 hrs by ELISA
T1 sequence (whole entry): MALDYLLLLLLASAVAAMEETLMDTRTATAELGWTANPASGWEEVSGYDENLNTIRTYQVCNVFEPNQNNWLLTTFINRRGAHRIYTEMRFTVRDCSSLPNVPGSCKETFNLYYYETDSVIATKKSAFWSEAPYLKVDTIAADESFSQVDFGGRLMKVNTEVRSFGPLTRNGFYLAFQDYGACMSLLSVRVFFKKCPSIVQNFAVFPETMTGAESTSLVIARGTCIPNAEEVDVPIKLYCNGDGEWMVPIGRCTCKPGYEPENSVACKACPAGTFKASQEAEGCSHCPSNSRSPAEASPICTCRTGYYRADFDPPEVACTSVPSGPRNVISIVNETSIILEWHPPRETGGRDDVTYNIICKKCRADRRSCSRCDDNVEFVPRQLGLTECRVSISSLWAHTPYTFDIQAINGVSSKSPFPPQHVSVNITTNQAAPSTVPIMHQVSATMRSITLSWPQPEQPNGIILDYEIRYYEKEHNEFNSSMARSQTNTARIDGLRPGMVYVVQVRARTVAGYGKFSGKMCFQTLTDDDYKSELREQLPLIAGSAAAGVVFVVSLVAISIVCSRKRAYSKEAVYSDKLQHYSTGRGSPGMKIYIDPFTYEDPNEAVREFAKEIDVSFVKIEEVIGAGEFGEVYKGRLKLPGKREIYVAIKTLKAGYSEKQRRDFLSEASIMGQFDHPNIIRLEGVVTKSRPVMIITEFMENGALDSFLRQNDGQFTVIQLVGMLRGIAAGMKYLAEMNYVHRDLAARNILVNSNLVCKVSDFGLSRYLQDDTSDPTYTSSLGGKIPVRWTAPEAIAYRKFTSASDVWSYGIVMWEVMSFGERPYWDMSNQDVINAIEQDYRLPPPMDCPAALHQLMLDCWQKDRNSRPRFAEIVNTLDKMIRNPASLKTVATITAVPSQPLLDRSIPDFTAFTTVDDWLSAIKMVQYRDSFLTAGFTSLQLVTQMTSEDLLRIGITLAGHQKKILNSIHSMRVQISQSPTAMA

[2] = target: T2, Ephrin type-B receptor 1 (Homo sapiens, UniProt P54762); assay: as §1
T2 sequence (P54762 whole entry): T1 sequence (whole entry)

[3] = target: Ephrin type-A receptor 4 (Homo sapiens, UniProt P54764); assay: Displacement of biotinylated ephrin-A1-Fc from EphA4 (unknown origin) preincubated for 1 hr followed by biotinylated-ephrin-A1-Fc addition measured after 4 hrs by ELISA
Chain of Ephrin type-A receptor 4 (P54764 whole entry): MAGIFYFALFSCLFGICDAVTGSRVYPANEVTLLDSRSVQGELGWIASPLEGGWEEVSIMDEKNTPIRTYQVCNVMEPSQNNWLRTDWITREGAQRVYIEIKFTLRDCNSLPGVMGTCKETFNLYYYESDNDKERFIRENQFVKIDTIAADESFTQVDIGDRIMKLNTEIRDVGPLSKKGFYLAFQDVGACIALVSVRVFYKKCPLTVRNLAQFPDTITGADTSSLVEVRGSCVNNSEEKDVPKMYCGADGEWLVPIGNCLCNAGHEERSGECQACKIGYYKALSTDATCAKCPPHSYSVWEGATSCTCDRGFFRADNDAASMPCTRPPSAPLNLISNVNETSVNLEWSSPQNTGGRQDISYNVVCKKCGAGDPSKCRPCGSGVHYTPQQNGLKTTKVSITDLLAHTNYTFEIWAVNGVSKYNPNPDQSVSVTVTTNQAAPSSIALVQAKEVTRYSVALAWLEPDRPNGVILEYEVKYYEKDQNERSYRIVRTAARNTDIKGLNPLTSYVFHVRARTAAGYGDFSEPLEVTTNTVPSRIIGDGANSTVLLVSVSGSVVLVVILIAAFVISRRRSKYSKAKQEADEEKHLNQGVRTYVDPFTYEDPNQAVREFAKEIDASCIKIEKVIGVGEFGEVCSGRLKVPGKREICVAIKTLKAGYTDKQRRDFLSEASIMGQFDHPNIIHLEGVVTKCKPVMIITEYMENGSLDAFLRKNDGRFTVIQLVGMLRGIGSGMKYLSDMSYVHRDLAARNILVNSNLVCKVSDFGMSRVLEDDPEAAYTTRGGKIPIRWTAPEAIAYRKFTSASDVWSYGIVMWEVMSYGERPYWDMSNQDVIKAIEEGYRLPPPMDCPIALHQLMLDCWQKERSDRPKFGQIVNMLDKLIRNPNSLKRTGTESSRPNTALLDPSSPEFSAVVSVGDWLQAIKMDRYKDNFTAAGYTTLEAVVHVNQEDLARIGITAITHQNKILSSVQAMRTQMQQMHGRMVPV

[4] = target: T3, Ephrin type-A receptor 6 (Homo sapiens, UniProt Q9UF33); assay: (§2) Displacement of biotinylated ephrin-A1-Fc from EphA6 (unknown origin) preincubated for 1 hr followed by biotinylated-ephrin-A1-Fc addition measured after 4 hrs by ELISA
T3 sequence (Q9UF33 whole entry): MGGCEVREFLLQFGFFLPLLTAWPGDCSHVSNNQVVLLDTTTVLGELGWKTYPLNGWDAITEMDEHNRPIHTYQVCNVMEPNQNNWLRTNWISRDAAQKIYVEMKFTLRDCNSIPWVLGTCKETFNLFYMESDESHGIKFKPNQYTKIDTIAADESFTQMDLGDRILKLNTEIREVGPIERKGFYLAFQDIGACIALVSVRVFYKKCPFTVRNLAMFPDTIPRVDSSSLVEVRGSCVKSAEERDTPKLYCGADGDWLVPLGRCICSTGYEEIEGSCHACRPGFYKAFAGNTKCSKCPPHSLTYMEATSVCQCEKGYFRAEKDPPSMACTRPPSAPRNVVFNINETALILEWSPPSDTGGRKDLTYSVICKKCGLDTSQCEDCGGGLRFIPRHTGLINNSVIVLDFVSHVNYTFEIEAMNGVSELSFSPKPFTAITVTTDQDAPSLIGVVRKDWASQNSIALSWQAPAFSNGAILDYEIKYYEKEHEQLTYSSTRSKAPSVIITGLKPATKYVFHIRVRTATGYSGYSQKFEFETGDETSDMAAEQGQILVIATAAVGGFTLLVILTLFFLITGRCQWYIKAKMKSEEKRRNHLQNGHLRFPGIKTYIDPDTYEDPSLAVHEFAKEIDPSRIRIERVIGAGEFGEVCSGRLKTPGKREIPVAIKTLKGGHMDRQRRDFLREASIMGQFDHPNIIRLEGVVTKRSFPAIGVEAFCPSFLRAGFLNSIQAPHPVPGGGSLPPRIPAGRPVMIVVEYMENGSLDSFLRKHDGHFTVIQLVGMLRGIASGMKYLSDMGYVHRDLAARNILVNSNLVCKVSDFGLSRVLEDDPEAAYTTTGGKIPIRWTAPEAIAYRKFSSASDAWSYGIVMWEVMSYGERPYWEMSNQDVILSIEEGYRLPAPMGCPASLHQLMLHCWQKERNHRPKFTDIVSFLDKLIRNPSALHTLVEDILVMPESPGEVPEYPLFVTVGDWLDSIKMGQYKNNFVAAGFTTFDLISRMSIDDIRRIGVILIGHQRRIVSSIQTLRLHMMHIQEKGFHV

[5] = target: T4, Ephrin type-A receptor 6 (Homo sapiens) (UniProt Q9UF33); assay: as §2
T4 sequence (whole entry): T3 sequence (Q9UF33 whole entry)

[6] = Metabolic stability in mouse plasma assessed as compound remaining at 1 uM after 24 hrs by HPLC-ESI-MS/MS analysis; assay type: ADME, cell-free; conditions: read-out: Stability
[7] = Kinetic solubility of the compound in NaCl solution at 25 deg C after 2 hrs by HPLC-ESI-MS/MS analysis; assay type: physicochemical; conditions: read-out: Kinetic_solubility
[8] = target: T5, Nuclear receptor subfamily 1 group I member 2 (Homo sapiens, UniProt O75469); assay: Activation of human recombinant PXR up to 10 uM by alphascreen method
T5 sequence (O75469 whole entry): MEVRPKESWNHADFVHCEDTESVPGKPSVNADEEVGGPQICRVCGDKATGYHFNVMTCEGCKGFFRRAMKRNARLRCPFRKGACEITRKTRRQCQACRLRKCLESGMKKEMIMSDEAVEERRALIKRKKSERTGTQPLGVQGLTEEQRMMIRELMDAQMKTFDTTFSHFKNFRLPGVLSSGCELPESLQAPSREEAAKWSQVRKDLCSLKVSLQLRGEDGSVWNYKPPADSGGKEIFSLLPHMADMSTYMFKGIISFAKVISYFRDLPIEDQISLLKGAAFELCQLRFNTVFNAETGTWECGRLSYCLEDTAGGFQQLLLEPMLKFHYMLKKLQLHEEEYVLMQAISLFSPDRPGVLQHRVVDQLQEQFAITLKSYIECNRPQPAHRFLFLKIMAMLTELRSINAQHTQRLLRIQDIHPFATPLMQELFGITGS

SMILES: C[C@H](CCC(=O)N[C@@H](Cc1c[nH]c2ccccc12)C(=O)O)[C@H]1CC[C@H]2[C@@H]3CC=C4C[C@@H](O)CC[C@]4(C)[C@H]3CC[C@]12C
- inhibition [1]: Dose-dependent effect
- IC50 [2]: 2.5 µM
- IC50 [3]: 3.8 µM
- inhibition [3]: Dose-dependent effect
- IC50 [4]: 3.5 µM
- inhibition [5]: Dose-dependent effect
- remaining at 24 h, 1 µM [6]: 95.8%
- solubility kinetic at 2 h [7]: 31.5 µM (≈ 17.7 µg/mL)
- Activity [8]: Not Active
